# Laboratory results taken from EP1200395B1, “UREA DERIVATIVES AS INHIBITORS OF CCR-3 RECEPTOR” (KIRIN BEER KABUSHIKI KAISHA, priority 1999, dated 2001).
# Key:
# Type in all cases: cell-based
# [1] = target: T1, CCR-3 (Homo sapiens, UniProt P51677); experiment: Eotaxin-induced chemotaxis of CCR-3 transfectant cells (CCR3/U937); set-up: expressed in transfected cells; host or cells: U937; conditions: eotaxin 1 x 10^-9 M; for inhibition at 10 µM: U-937; for inhibition at 10 µM / Chemotaxis Assay 10 µM (inhibition %): 10 µM test compound; for CCR-3 Transfectant Chemotaxis Assay 6.25 µg/ml (inhibition %): 6.25 µg/ml test compound, CCR3/U937 cells (Table 3b)
# T1 sequence (P51677 1-355): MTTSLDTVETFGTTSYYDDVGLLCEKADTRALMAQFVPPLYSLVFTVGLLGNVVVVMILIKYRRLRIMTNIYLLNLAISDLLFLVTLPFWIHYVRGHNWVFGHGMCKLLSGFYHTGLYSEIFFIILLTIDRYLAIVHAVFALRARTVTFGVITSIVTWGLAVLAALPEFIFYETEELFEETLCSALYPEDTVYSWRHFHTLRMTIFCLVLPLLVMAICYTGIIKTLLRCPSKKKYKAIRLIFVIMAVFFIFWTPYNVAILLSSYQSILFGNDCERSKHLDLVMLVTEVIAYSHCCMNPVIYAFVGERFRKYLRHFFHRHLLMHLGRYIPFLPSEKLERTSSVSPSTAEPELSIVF
# [2] = test system: human-derived eosinophils; experiment: Eotaxin-induced chemotaxis of cultured eosinophils; conditions: 10.00 µM compound, human eotaxin 1 x 10^-9 M, 37°C for 1 hour; for inhibition at 10 µM: Eosinophil
# Experimental: The inhibitory activity of the compounds against eotaxin-mediated chemotaxis of human-derived eosinophils was determined assay described below. Eosinophils were prepared from culture of human cord blood mononuclear cells as described by Ohashi, H. et al., Int Arch Allergy Immunol. (1999) 118, 44-50. For the assay, eosinophils were resuspended at 1 x 10^7 cells/ml in assay medium (RPMI 1640 medium containing 0.1 % bovine serum albumin (BSA)). The chemotaxis assay was performed in a 24-well culture plate. Human eotaxin suspended in assay medium was added into wells at 1 x 10^-9 M with test compounds at various concentrations. For a positive control, eotaxin was added without a test compound, and for a negative control, neither eotaxin nor a test compound was added to the wells. Chemotaxicell (Kurabo Co., Ltd.) having 5 micrometers pore size were inserted into each well and 100 microliters of eosinophil suspension were added to the top chamber. The plates were incubated at 37°C for 1 hour. After incubation, migrated cells in lower wells were diluted and counted by particle size distribution analyzer (CDP-500, Sysmex Co., Ltd.).
# [3] = target: T1, CCR-3; experiment: Calcium mobilization assay (inhibition of eotaxin-induced intracellular calcium mobilization in CCR3/HEK293 cells); set-up: expressed in transfected cells; conditions: 6.25 µg/ml test compound; eotaxin 10 nM; CCR3/HEK293 cells (Table 2a)
# Experimental: Compounds 93-162 used in this assay were synthesized by using the method described in Example 6.
# CCR-3 transfectant cells (CCR3/HEK293) were isolated and resuspended with assay buffer (20 mM HEPES, 125 mM NaCl, 5 mM KCl; 0.5 mM glucose, 1 mM CaCl2, 1 mM MgCl2, 0.1 % BSA). After washing CCR3/HEK293 cells with assay buffer, cells were loaded with Fura-2/AM in assay buffer for 1 hour at room temperature. Cells were washed and resuspended with assay buffer at 5 x 10^6 cells/ml in assay buffer, and placed in a tissue culture plate (Falcon, no. 3296). Test compounds dissolved in DMSO were added to the wells, followed by eotaxin (10 nM at final concentration). Cells were excited at 340 nm and 380 nm in a fluorimeter (ARGUS50, FDSS2000, Hamamatsu Photonics) and the relative ratio of the fluorescence emitted at 510 nm was recorded. For a control, DMSO without a test compound was added. Intracellular calcium mobilization was calculated as described in Krogel C. et al. , FEBS Let. (1989) 243 , 41-46.
CCR-3 Transfectant Chemotaxis Assay 6.25 µg/ml (inhibition %) [1] [%],Ca^2+ mobilization 6.25 µg/ml (inhibition %) [3],Structure (SMILES),also measured
12,51%,CCOC(=O)C1CC1CN(CCCNC(=O)Nc1ccccc1-c1ccccc1)CCc1ccc(OC)c(OC)c1 (stereo not shown) [Compound 109],
44,51%,Cc1ccc(CCN(CCCNC(=O)Nc2ccccc2-c2ccccc2)CC(C)C)cc1 [Compound 111],
32,63%,Cc1cccc(NC(=O)NCCCN(Cc2ccc3c(c2)OCO3)CC(C)C)c1 [Compound 136],
65,62%,CC(C)CCN(CCCNC(=O)Nc1ccc(Br)cc1)CCc1c[nH]cn1 [Compound 119],
21,63%,O=C(O)CCCN(CCCNC(=O)Nc1ccc(Br)cc1)CCc1ccc(Cl)c(Cl)c1 [Compound 133],
54,54%,CC(C)CN(CCCNC(=O)Nc1ccc(Br)cc1)Cc1ccc2c(c1)OCO2 [Compound 126],
64,52%,O=C(NCCCN(CCOCc1ccccc1)CCc1c[nH]cn1)Nc1ccc(Br)cc1 [Compound 121],
26,52%,CCOC(=O)C1CC1CN(CCCNC(=O)Nc1ccccc1-c1ccccc1)CCc1ccc(C)cc1 (stereo not shown) [Compound 112],
32,57%,COc1ccc(CCN(CCCNC(=O)Nc2ccccc2-c2ccccc2)C[C@@H]2CCCN2)cc1OC [Compound 110],
22,51%,O=C(NCCCN(CCc1ccccc1)CCc1ccc(Cl)c(Cl)c1)Nc1ccccc1-c1ccccc1 [Compound 114],
33,55%,O=C(NCCCN(Cc1ccc2c(c1)OCO2)C[C@@H]1CCCN1)Nc1ccc(Br)cc1 [Compound 128],
90,65%,CCOC(=O)C1CC1CN(CCCNC(=O)Nc1ccc(Br)cc1)C1CCCc2ccccc21 (stereo not shown) [Compound 125],
11,55%,Cc1ccc(CCN(CCCNC(=O)Nc2ccc(Br)cc2)CCCC(=O)O)cc1 [Compound 132],
62,57%,CCOC(=O)C1CC1CN(CCCNC(=O)Nc1ccccc1-c1ccccc1)CCc1ccc(Cl)c(Cl)c1 (stereo not shown) [Compound 115],
62,58%,CC(C)CN(CCCNC(=O)Nc1ccc(Br)cc1)CCc1c[nH]cn1 [Compound 118],
12,57%,Cc1cccc(NC(=O)NCCCN(C[C@@H]2CCCN2)C2CCCc3ccccc32)c1 (stereo partly shown) [Compound 135],
66,51%,CC(C)CN(CCCNC(=O)Nc1ccccc1-c1ccccc1)CCc1ccc(Cl)c(Cl)c1 [Compound 113],
31,56%,CCOC(=O)C1CC1CN(CCCNC(=O)Nc1cccc(Cl)c1)C1CCCc2ccccc21 (stereo not shown) [Compound 149],
92,66%,CC(C)CN(CCCNC(=O)Nc1ccc(Br)cc1)C1CCCc2ccccc21 (stereo not shown) [Compound 122],

# The remaining lines, values behind:
Structure (SMILES),CCR-3 Transfectant Chemotaxis Assay 6.25 µg/ml (inhibition %) [1] [%],Ca^2+ mobilization 6.25 µg/ml (inhibition %) [3],also measured
"CC[N+](CC)(CCCNC(=O)Nc1ccccc1)CCc1ccc(Cl)cc1 [Compound 91, [3-(Phenylureido)propyl][2-(4-chlorophenyl)ethyl]-diethylammonium iodide]",,,inhibition at 10 µM ([1]; CCR3/U937 cells (Table 3c)): 100%; inhibition at 10 µM [2]: 100%
"C[C@H](c1ccccc1)N(CCCNC(=O)Nc1ccc(Br)cc1)CCCC(=O)O [Compound 61, 4-[[3-(4-Bromophenylureido)propyl][(1R)-1-phenylethyl]amino]-butanoic acid]",,,inhibition at 10 µM ([1]; CCR3/U937 cells (Table 3a)): 100%; inhibition at 10 µM [2]: 100%
"O=C(O)CCCN(CCCNC(=O)Nc1ccc(Cl)c(Cl)c1)C1CCCc2ccccc21 (stereo not shown) [Compound 65, 4-[[3-(3,4-Dichlorophenylureido)propyl](1,2,3,4-tetrahydro-1-naphthyl)amino]butanoic acid]",,,inhibition at 10 µM ([1]; CCR3/U937 cells (Table 3a)): 100%; inhibition at 10 µM [2]: 100%
COc1cc(CN(CCCNC(=O)Nc2ccc(Br)cc2)CCCC(=O)O)cc(OC)c1OC [Compound 66],,,Chemotaxis Assay 10 µM (inhibition %) ([1]; CCR3/U937 cells (Table 3a)): 32%; Cultured Eosinophil Chemotaxis assay 10.00 µM (inhibition %) [2]: 44%
COc1ccc(CCN(CCCNC(=O)Nc2ccccc2-c2ccccc2)CC(C)C)cc1OC [Compound 108],23,61%,
COC(=O)CCCN(CCCNC(=O)Nc1ccccc1-c1ccccc1)CCc1ccccc1 [Compound 106],47,57%,
O=C(NCCCN(CCc1ccccc1)C[C@@H]1CCCN1)Nc1ccccc1-c1ccccc1 [Compound 107],55,53%,
O=C(NCCCN(Cc1ccc2c(c1)OCO2)C[C@@H]1CCCN1)Nc1ccccc1-c1ccccc1 [Compound 102],19,63%,
CSCCCN(CCCNC(=O)Nc1ccccc1-c1ccccc1)Cc1ccc2c(c1)OCO2 [Compound 100],54,53%,
O=C(O)CCCN(CCCNC(=O)Nc1ccc(Br)cc1)Cc1ccccc1 [Compound 67],,,Chemotaxis Assay 10 µM (inhibition %) ([1]; CCR3/U937 cells (Table 3a)): 100%; Cultured Eosinophil Chemotaxis assay 10.00 µM (inhibition %) [2]: 71%
"CCN(CCCNC(=O)Nc1ccccc1)CCc1ccc(Cl)cc1 [Compound 1, N-Phenylcarbamoyl-N'-[2-(4-chlorophenyl)ethyl]-N'-ethyl-1,3-diaminopropane]",,,inhibition at 10 µM ([1]; CCR3/U937 cells (Table 3a)): 100%; inhibition at 10 µM [2]: 100%
"CC[N+](CC)(CCCNC(=O)Nc1ccc(Br)cc1)CCc1ccc(Cl)cc1 [Compound 92, [3-(4-Bromophenylureido)propyl][2-(4-chlorophenyl)ethyl]-diethylammonium iodide]",,,inhibition at 10 µM ([1]; CCR3/U937 cells (Table 3c)): 100%; inhibition at 10 µM [2]: 100%
COC(=O)CCCN(CCCNC(=O)Nc1ccc(Br)cc1)Cc1ccco1 [Compound 38],,,Chemotaxis Assay 10 µM (inhibition %) ([1]; CCR3/U937 cells (Table 3a)): 46%; Cultured Eosinophil Chemotaxis assay 10.00 µM (inhibition %) [2]: 11%
"CCN(CCCNC(=O)Nc1ccc(Br)cc1)CCc1ccc(Cl)cc1 [Compound 3, N-(4-Bromophenylcarbamoyl)-N'-[2-(4-chlorophenyl)ethyl]-N'-ethyl-1,3-diaminopropane]",,,inhibition at 10 µM ([1]; CCR3/U937 cells (Table 3a)): 100%; inhibition at 10 µM [2]: 100%
O=C(O)CCCN(CCCNC(=O)Nc1ccc(Cl)c(C(F)(F)F)c1)CCC(c1ccccc1)c1ccccc1 [Compound 97],21,57%,
CC(C)CCN(CCCNC(=O)Nc1ccccc1-c1ccccc1)Cc1ccc2c(c1)OCO2 [Compound 99],47,. 53%,
